# Key:
# EZ-resistant C4-2B (PC) = test: MTT cell viability, EZ-resistant C4-2B (MDVR); assay type: cell-based; settings: Homo sapiens, 48 h / 24 hours, relative IC50
# Protocol: Cell culture: In the following examples, unless otherwise specified, all cell lines are purchased from American Type Culture Collection and cultured in American Type Culture Collection (ATCC)-recommended media, with fetal bovine serum (FBS) to a final concentration of 10% and 1×penicillin/streptomycin at 37° C. with 5% CO2 in a cell culture incubator, unless otherwise specified. Unless otherwise specified, culture is 2D. Where culture is 3D, low attachment plates are used, with the same media. C4-2B (parental cell line and drug-resistant cells derived therefrom) are cultured in RPMI-1640 with 10% FBS. MDVR cells (an Enzalutamide-resistant variety of C4-2B prostate cancer cells formed as described in Example 4 below) are cultured as indicated for the parental C4-2B cells. 22RV1 Prostate Cancer (PC) cells (ATCC® CRL-2505™, a human prostate carcinoma cell line of epithelial morphology) are cultured in RPMI-1640 with 10% FBS. A549 cells (ATCC® CCL-185™, a human lung carcinoma cell line of epithelial morphology) are cultured in F-12K medium with 10% FBS. A549/DDP cells (Cells were described in DOI: 10.3892/mmr.2014.2163 and in doi: 10.7150/jca.19426; cisplatin resistant cells may be established from exposing parental A549 cells to cisplatin for an extended time). MDR A549/cisplatin lung adenocarcinoma cell line, drug resistant) are cultured in F-12K medium with 10% FBS. […]
# 22RV1 (PC) = test: MTT cell viability, 22RV1; assay type: cell-based, human; settings: Homo sapiens, 22Rv1, 22RV1, treated for 48 h /, relative IC50
# Protocol: Cell culture: In the following examples, unless otherwise specified, all cell lines are purchased from American Type Culture Collection and cultured in American Type Culture Collection (ATCC)-recommended media, with fetal bovine serum (FBS) to a final concentration of 10% and 1×penicillin/streptomycin at 37° C. with 5% CO2 in a cell culture incubator, unless otherwise specified. Unless otherwise specified, culture is 2D. Where culture is 3D, low attachment plates are used, with the same media. C4-2B (parental cell line and drug-resistant cells derived therefrom) are cultured in RPMI-1640 with 10% FBS. MDVR cells (an Enzalutamide-resistant variety of C4-2B prostate cancer cells formed as described in Example 4 below) are cultured as indicated for the parental C4-2B cells. 22RV1 Prostate Cancer (PC) cells (ATCC® CRL-2505™, a human prostate carcinoma cell line of epithelial morphology) are cultured in RPMI-1640 with 10% FBS. A549 cells (ATCC® CCL-185™, a human lung carcinoma cell line of epithelial morphology) are cultured in F-12K medium with 10% FBS. A549/DDP cells (Cells were described in DOI: 10.3892/mmr.2014.2163 and in doi: 10.7150/jca.19426; cisplatin resistant cells may be established from exposing parental A549 cells to cisplatin for an extended time). MDR A549/cisplatin lung adenocarcinoma cell line, drug resistant) are cultured in F-12K medium with 10% FBS. H1975 cells (ATCC® CRL-5908™, a human adenocarcinoma non-small cell lung cancer cell line of epithelial morphology) are cultured in RPMI-1640 medium with 10% FBS; H1975 cells are a cell model for human lung cancer that is resistant to Gefitinib (an EGFR inhibitor drug used for treatment of certain breast, lung and other cancers). H1650 cells (ATCC® CRL-5883™, a adenocarcinoma/bronchoalveolar carcinoma lung cancer cell line of epithelial morphology) are cultured in RPMI-1640 medium with 10% FBS. […]
# […] For each cell line, the IC50 is determined for each drug, i.e. the ELSD, the ALSD, and for the corresponding unconjugated statin (Simvastatin), in concentrations from 0.1-100 μM. […]
# [1] = system: 22Rv1 human prostate carcinoma tumors; test: Tumor volume of 22Rv1 tumors grown subcutaneously in mice; assay type: in vivo; settings: 5 mg/kg, intravenously injected
# Protocol: Example 1D: 22Rv1 human prostate carcinoma cells are cultured as described above, separated from the medium, resuspended in 50% phosphate buffered saline (PBS) and 50% BD Matrigel™ (BD Biosciences, CA), and then the re-suspended cells are injected and grown subcutaneously in mice. […] The decrease of the THSD in the tumors at 2 and 4 weeks, respectively, as determined by NIR signal, is less than about 30%.
# Example 1E: 22Rv1 human prostate carcinoma cells are cultured, injected and grown subcutaneously in mice as described above in example 1D. Tumor volume is monitored by measuring the size by caliper and calculating volume as described in example 9 below. The mice are intravenously injected with the following: ALSD of formula FIId, “DZ2a”, compound 7, the corresponding unconjugated dye (here: DZ1), unconjugated Simvastatin, a statin drug (SIM), and docetaxel (DOC), a cancer drug, and a mixture of the ALSD with DOC. Each active was administered in an amount of 5 mg/kg for the ALSD, DZ1, and SIM, except, in case of DOC, 8 mg/kg. A slower rate of increased tumor volume indicates tumor suppressive activity.
Compound,IC50 (EZ-resistant C4-2B (PC)) [µM],IC50 (22RV1 (PC)) [µM],tumor suppressive activity (tumor volume increase) [1]
CCC(C)(C)C(=O)O[C@H]1C[C@@H](C)C=C2C=C[C@H](C)[C@H](CC[C@@H]3C[C@@H](O)CC(=O)O3)[C@H]21 [Simvastatin],25.5,38.7,
CC1(C)C(/C=C/C2=C(Cl)C(=C/C=C3/N(CCCCCC(=O)O)c4ccccc4C3(C)C)/CCC2)=[N+](CCCCS(=O)(=O)[O-])c2ccccc21 [DZ1],,,no significant tumor suppressive activity

# — patent US20230116399A1, “Tumor Homing Statin Derivatives” (Da Zen Theranostics, Inc., priority 2019, published 2023)
